Test results published in patent US20240041813A1, “VERY-LONG-CHAIN POLYUNSATURATED FATTY ACIDS, ELOVANOID HYDROXYLATED DERIVATIVES, AND METHODS OF USE” (priority 2020, published 2024).
Entries after “also recorded” stand apart in the source; their conditions may differ.

Experiments:
ACE2 [1] = experiment: Cytokine screening for stimulation of Ace2 in HCEC (dd-PCR); format: cell-based, human; settings: cytokine at 1, 10, and 100 ng/mL, 6 hours
[2] = tested on: receptor-binding domain (RBD) of the SARS-CoV-2 spike; format: cell-based, human
Alexa 594-RBD [3] = experiment: HCEC challenged with IFNγ: Alexa 594-RBD binding (unbiased imaging, Imaris); format: cell-based, human; settings: IFNγ 100 ng/ml and lipid mediators 200 nM for 12 h, images 24 h after RBD
Method: (§1) For screening the stimulation of receptor ACE2 by cytokines, the HCEC were cultured with KGM until 50-60% confluence. Then, changed to KBM containing IL-1β, -2, -6 and 8, IFN-α, -ε, and -γ or TNFα at 1, 10 or 100 ng/ml. The cells were harvested after 6 hours and analyze for the gene expression of Ace2. In other experiments, HCEC were stimulated with IFNγ, and thereafter, lipid mediators were added. For the Alexa 594-conjugated RBD binding, IFNγ was used as a cytokine trigger. At 12 hours after cytokine exposure and lipid mediator treatments, […] of labeled RBD was added to the medium. The evaluation of RBD binding was conducted 24 hours after.
Twenty-four hours after Alexa 594-RBD was added to the HCEC, the cells were washed with PBS (3×/5 min) and fixed with 4% paraformaldehyde for 30 minutes at RT. The HCEC were washed 2× with PBS and stained with Hoechst 33342 Solution (ThermoFisher Scientific, Cat. 62249) for 30 minutes at RT. Next, the HCEC were washed 2× with PBS before imaging. For unbiased data collection, 7 designated areas were defined in each well (FIG. 63) and captured with an Olympus FV3000 confocal laser scanning microscopy under “Multi Area Time Lapse” (MATL) mode. All images were acquired with the same parameters and Z-section range, converted and inputted in the Imaris software version 9.5.1. The threshold for the control images was defined by the HCEC without Alexa 594-conjugated RBD of S protein and using it as a threshold filter for the Imaris batch image processing function. The sum of total intensity for each image was used to evaluate the binding efficiency.

Cdkn2a (p16INK4a) = experiment: HCEC challenged with IFNγ: Cdkn2a gene expression; format: cell-based, human; settings: IFNγ 100 ng/ml
Description: All experiments with human corneal epithelial cells were approved by the Institutional Review Board of LSUHNO and conducted in accordance with NIH guidelines. HCEC were kept frozen in the laboratory at passage 2544. Cells were maintained in keratinocyte growth (KGM) medium containing the keratinocyte basal medium (KBM) (Lonza: CC-3101) supplemented with bovine pituitary extract (BPE), hEGF, Insulin, Hydrocortisone and Gentamicin Sulfate-Amphotericin (GA-1000) (Lonza, Cat. CC-4131). For all experiments, cells were seeded at 30,000 cells/cm2.
as §1
Quantitative PCR was performed with the Biomark HD system (Fluidigm, San Francisco, CA, USA). Briefly, 200 ng of RNA was reverse-transcribed using iScript Reverse Transcription Supermix (Bio-Rad), and the cDNA was pre-amplified using the PreAmp Master Mix (PN 100-5580; Fluidigm). The cDNA was then subjected to Exonuclease I treatment and diluted 5 times in TE Buffer. The qPCR reaction mixture and primer reaction mixture were made and loaded into the Biomark 96.96 IFC™ (Integrated Fluidic Circuit). The enzyme reaction was mixed using Juno™ Controller (Fluidigm) and run using the cycling program of (i) 70° C. for 40 minutes followed by 60° C. for 30 seconds, (ii) hot start for 1 minute at 95° C., (iii) 30 cycles of denaturation at 96° C. for 5 seconds, and annealing at 60° C. for 20 seconds, and (iv) melting curves between 60° C. and 95° C. with 1° C. increments/3 seconds. The Ct value of target genes was normalized to the house-keeping genes Gapdh, Hprt1, and Tfrc before normalized to the vehicle group. Relative fold changes from the ΔΔCT calculation was used to make the graph.

[4] = tested on: human corneal epithelial cells (HCEC); experiment: HCEC challenged with IFNγ: SASP secretome (β-Gal staining); format: cell-based; settings: HCEC 24 h after IFN-γ challenge
Alexa 594-RBD [5] = format: in vivo; settings: rat cornea after alkali burn; 14 days treatment; Alexa 594-RBD 1 μg/eye, 3 times at day 15, examined a day later
injured rat cornea = experiment: Rat cornea alkali burn: corneal RNA-seq, cytokine storm, NFkB/inflammation, senescence, integrin and protease genes; format: in vivo; settings: for availability of ACE2, TMPRSS2 and Furin increased after alkali burn: rat cornea after alkali burn, RNA-seq, ACE2 and Furin confirmed by JESS (Example 15)
Method: (§2) The rats were anesthetized by intraperitoneal injection of Ketamine (50-100 mg/kg) plus xylazine (5-10 mg/kg). A 4 mm diameter filter paper soaked in 1 N NaOH was placed on the central cornea of the right eye for 45 seconds, and then the eye was thoroughly washed with […] of saline. After injury, the rats were randomly divided into five treatment groups: vehicle; lipoxin A4 (LXA4) from Cayman Chemical (Ann Arbor, MI, USA); R,R Resolvin D6 isomer (RvD6i), R,R neuroprotection D (NPD1), and elovanoid (ELV)-N32. All lipid solutions were prepared at the final concentration of […] using PBS with the minimal contamination of ethanol by evaporating the ethanol and immediately dissolve the lipids in PBS, then vortex well for 2 min. Topical administration (20 μl) was done 3×/day for 14 days. The experiments were double-blinded with the lipid mediators coded during the whole experiments. At the end of the study, when all data was collected, the code was opened.
(§3) Injured corneas (n=5/condition) were harvested and homogenized with TRIzol (Thermo Fisher Scientific) on ice with a glass Dounce homogenizer. RNA sequencing was performed as described^14. Briefly, after mRNA extraction and determination of purity, 8 ng of total RNA was reverse transcribed, and total cDNAs were amplified using ISPCR primer, and the library was made with the Nextera XT DNA library preparation kit (Illumina, San Diego, CA, USA). The libraries were pooled with the same molarity and sequenced using the NextSeq 500/550 High Output Kit v2 (75 cycles, Illumina). After demultiplexing, RNA-seq data were aligned to the Rattus Norvegicus reference genome (.ensembl.org/pub/release-98/fasta/rattus_norvegicus/dna/) using the Subread package v2.0.1 alignment function39. The BAM files for sequencing data alignment were counted using featureCounts function of Subread tool^40 using the macOS Catalina. The raw count data were subjected to differential gene expression analysis using DESeq2 package for R^41 with the vehicle group as reference. The adjusted p-values were named as the false discover rate (FDR).

ACE2 [6] = experiment: Rat cornea alkali burn: ACE2 abundance by Jess capillary-based Western Blot; format: in vivo; settings: rat cornea after alkali burn, eye drops 20 μl/eye, 3 times/day for 14 days, day 14
Description: Sprague-Dawley rats (8-week-old male) were obtained from Charles River Laboratories (Wilmington, MA, USA) and kept at the Animal Care of the Neuroscience Center of Excellence, Louisiana State University Health (LSUH; New Orleans, LA, USA). All animals were handled in compliance with the guidelines of the ARVO Statement for the Use of Animals in Ophthalmic and Vision Research, and the experimental protocol was approved by the Institutional Animal Care and Use Committee (IACUC) at LSUH.
as §2
Briefly, samples were lysed with RIPA buffer containing a protease inhibitor cocktail (Sigma, Cat. P8340). Cell debris was removed after 10 min centrifugation at 16,000×g. Protein concentration was determined by BCA assay (Thermo Fisher Scientific, Cat. 23225) and 1 μg used/reaction. Fluorescent Master Mix was mixed with 40 mM DTT, and the mixture was added to each sample to provide a denaturing and reducing environment. Samples were heated at 95° C./5 min, and 3 μL of each sample were loaded. The 12-230 kDa cartridge (Protein Simple—#SM-W004) was used. Primary antibodies were diluted in antibody diluent 2 buffer (Protein Simple, #042-203) while the working solution of secondary antibodies was provided by the company (Protein Simple, #042-206). Then, the filled plate was spin-down for 10 min at 1,000×g to remove bubbles and plate, and capillaries were loaded into the Jess machine. For data analysis, the area of spectra that matched the molecular weight of the target protein was used. To reduce the coefficient variant, we analyzed the GAPDH for each capillary. The ratio of the targeted protein to GAPDH was used for statistical comparisons. For visualization, the artificial lanes generated from spectra volume was used.

ACE2 [7] = experiment: Rat cornea alkali burn: corneal RNA-seq, Ace2 gene expression; format: in vivo; settings: rat cornea after alkali burn, eye drops 3 times/day for 14 days, RNA-seq day 14
Method: as §2, §3

human alveolar cells = experiment: Fate of added VLC-PUFAs in human bronchiole/alveoli cell cultures (LC-MS/MS); settings: human lung cell cultures; paired with FA18:1 or FA18:0

TNFα
Ace2 expression (dd-PCR) (ACE2 [1]): no significant increase | internalized RBD signal [2]: increased

CC/C=C\C[C@H](O)/C=C/C=C\C/C=C\C/C=C\C=C\[C@@H](O)CCC(=O)O [RvD6, reference compound]
IFNγ-stimulated Alexa 594-RBD binding (Alexa 594-RBD [3]): decrease

IL1β
Ace2 expression (dd-PCR) (ACE2 [1]): no significant increase | internalized RBD signal [2]: increased

CCCCC[C@@H](O)/C=C/C=C\C=C\C=C\[C@@H](O)[C@@H](O)CCCC(=O)O [LXA4, reference compound]
Cdkn2a activation (Cdkn2a (p16INK4a)): does not | senescence programming genes and SASP secretome activation (β-Gal) [4]: not | binding of Alexa 594-RBD to injured cornea (Alexa 594-RBD [5]): decrease; also recorded: counteracted; also recorded: significant effect | availability of ACE2, TMPRSS2 and Furin increased after alkali burn (injured rat cornea): remarkable blocked | availability of ACE2, TMPRSS2 and Furin increased after alkali burn (injured rat cornea; listed as Lipoxin A4): downregulates | Il6 and Vegfa expression (injured rat cornea; rat cornea, RNA-seq 14 days after injury): reduced | ACE2 abundance (protein, normalized to GAPDH) (ACE2 [6]): decrease | ACE2 abundance (protein, normalized to GAPDH) (ACE2 [6]; listed as Lipoxin A4): downregulates | Ace2 gene expression levels (ACE2 [7]): decrease | Ace2 gene expression levels (ACE2 [7]; listed as Lipoxin A4): downregulates

CC/C=C\C/C=C\C/C=C\C/C=C\C/C=C\C/C=C\CCCCCCCCCCCCCCC(=O)O [34:6, (16Z,19Z,22Z,25Z,28Z,31Z)-tetratriaconta-16,19,22,25,28,31-hexaenoic acid]
incorporation in phosphatidylcholine molecular species (human alveolar cells): incorporated | RBD protein internalization (RBD located below the membrane line) [2]: decrease; also recorded: reduces

CC/C=C\C[C@H](O)\C=C/C=C/C=C/[C@H](O)C/C=C\C/C=C\CCC(=O)O [NPD1]
IFNγ-stimulated Alexa 594-RBD binding (Alexa 594-RBD [3]): decrease; also recorded: attenuated | Cdkn2a activation (Cdkn2a (p16INK4a)): decrease | senescence programming genes and SASP secretome activation (β-Gal) [4]: blocked | binding of Alexa 594-RBD to injured cornea (Alexa 594-RBD [5]): fails; also recorded: did not have an effect; also recorded: failed to decrease | ACE2 abundance (protein, normalized to GAPDH) (ACE2 [6]): failed to decrease; also recorded: no effect

CC/C=C\C[C@H](O)\C=C/C=C/C=C/[C@H](O)C/C=C\C/C=C\CCCCCCCCCCCCC(=O)OC [ELV32 methyl ester, methyl (14Z,17Z,20R,21E,23E,25Z,27S,29Z)-20,27-dihydroxydotriaconta-14,17,21,23,25,29-hexaenoate]
RBD of the SARS-CoV-2 spike entrance / internalized RBD [2]: downregulated

CC/C=C\C/C=C\C/C=C\C/C=C\C/C=C\C/C=C\CCCCCCCCCCCCC(=O)O [32:6, (14Z,17Z,20Z,23Z,26Z,29Z)-dotriaconta-14,17,20,23,26,29-hexaenoic acid]
incorporation in phosphatidylcholine molecular species (human alveolar cells): incorporated | RBD protein internalization (RBD located below the membrane line) [2]: decrease; also recorded: reduces

IL6
Ace2 expression (dd-PCR) (ACE2 [1]): no significant increase

IL8
Ace2 expression (dd-PCR) (ACE2 [1]): no significant increase

CC/C=C\C[C@H](O)C#C/C=C/C=C/[C@H](O)C/C=C\C/C=C\CCCCCCCCCCCCC(=O)OC [ELV 32(AC) acetylenic methyl ester, methyl (14Z,17Z,20R,21E,23E,27S,29Z)-20,27-dihydroxydotriaconta-14,17,21,23,29-pentaen-25-ynoate]
RBD of the SARS-CoV-2 spike entrance / internalized RBD [2]: downregulated

B1: IFNγ (protein, UniProt P01579 24-161, looked up)
Interferon gamma: QDPYVKEAENLKKYFNAGHSDVADNGTLFLGILKNWKEESDRKIMQSQIVSFYFKLFKNFKDDQSIQKSVETIKEDMNVKFFNSNKKKRDDFEKLTNYSVTDLNVQRKAIHELIQVMAELSPAAKTGKRKRSQMLFRG
Ace2 expression (dd-PCR) (ACE2 [1]): activate

B2: IFNε (protein, UniProt Q86WN2 22-208, looked up)
Interferon epsilon: LDLKLIIFQQRQVNQESLKLLNKLQTLSIQQCLPHRKNFLLPQKSLSPQQYQKGHTLAILHEMLQQIFSLFRANISLDGWEENHTEKFLIQLHQQLEYLEALMGLEAEKLSGTLGSDNLRLQVKMYFRRIHDYLENQDYSTCAWAIVQVEISRCLFFVFSLTEKLSKQGRPLNDMKQELTTEFRSPR
Ace2 expression (dd-PCR) (ACE2 [1]): no significant increase
